Results: patent US7825256B2, “Inducible nitric oxide synthase dimerization inhibitors” (Kalypsys, Inc., priority 2004, dated 2010)

Target: T1, heNOS (Homo sapiens, UniProt P29474)
T1 construct: expressed in transfected cells; host or cells: HEK293
T1 sequence (P29474 2-1203 limits assumed): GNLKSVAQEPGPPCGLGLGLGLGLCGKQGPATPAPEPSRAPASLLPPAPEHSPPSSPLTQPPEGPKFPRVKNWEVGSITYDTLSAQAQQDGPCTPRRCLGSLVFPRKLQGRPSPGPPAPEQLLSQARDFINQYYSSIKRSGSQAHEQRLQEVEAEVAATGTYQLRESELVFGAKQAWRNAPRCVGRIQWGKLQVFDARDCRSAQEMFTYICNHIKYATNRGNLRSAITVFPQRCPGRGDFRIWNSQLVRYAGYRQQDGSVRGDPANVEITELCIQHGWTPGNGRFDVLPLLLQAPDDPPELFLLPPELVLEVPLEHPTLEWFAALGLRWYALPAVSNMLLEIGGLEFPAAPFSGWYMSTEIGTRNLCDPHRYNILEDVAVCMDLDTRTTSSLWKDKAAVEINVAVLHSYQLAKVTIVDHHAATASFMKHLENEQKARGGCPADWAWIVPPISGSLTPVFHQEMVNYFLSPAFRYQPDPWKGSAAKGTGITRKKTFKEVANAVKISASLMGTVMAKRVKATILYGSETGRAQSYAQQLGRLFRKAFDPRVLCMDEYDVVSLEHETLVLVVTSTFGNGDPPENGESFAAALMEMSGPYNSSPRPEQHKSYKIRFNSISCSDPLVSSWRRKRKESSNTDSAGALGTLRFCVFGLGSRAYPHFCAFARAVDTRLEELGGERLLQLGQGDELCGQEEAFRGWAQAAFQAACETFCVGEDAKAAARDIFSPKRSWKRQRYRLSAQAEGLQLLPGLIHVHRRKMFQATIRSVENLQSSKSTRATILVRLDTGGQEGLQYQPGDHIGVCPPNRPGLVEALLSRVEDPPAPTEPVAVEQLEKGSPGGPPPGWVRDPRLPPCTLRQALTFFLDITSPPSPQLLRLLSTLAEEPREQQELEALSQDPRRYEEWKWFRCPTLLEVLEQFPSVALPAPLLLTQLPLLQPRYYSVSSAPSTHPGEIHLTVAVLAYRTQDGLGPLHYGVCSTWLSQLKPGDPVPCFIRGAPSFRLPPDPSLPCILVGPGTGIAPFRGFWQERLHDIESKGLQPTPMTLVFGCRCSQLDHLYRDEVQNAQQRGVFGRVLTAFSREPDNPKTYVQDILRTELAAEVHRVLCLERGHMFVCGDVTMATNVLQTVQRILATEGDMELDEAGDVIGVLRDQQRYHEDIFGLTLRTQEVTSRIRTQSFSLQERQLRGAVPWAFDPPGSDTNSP
Assay: DAN assay, heNOS expressed in transiently transfected HEK293 cells
Format: cell-based
Conditions: HEK293 cells transiently transfected with heNOS
Source text: The source of nitric oxide synthase (NOS) enzyme can be generated in several ways including induction of endogenous iNOS using cytokines and/or lipopolysaccharide (LPS) in various cell types known in the art. Alternatively, the gene encoding the enzyme can be cloned and the enzyme can be generated in cells via heterologous expression from a transient or stable expression plasmid with suitable features for protein expression as are known in the art. Enzymatic activity (nitric oxide production) is calcium independent for iNOS, while the constitutive NOS isoforms, nNOS and eNOS, become active with the addition of various cofactors added to cellular media or extract as are well known in the art. Enzymes specified in Table 1 were expressed in HEK293 cells transiently transfected with the indicated NOS isoform.
A major metabolic pathway for nitric oxide is to nitrate and nitrite, which are stable metabolites within tissue culture, tissue, plasma, and urine (S Moncada, A Higgs, N Eng J Med 329, 2002 (1993)).
The level of nitrate or nitrite in the specimen can be quantified by any method known in the art which provides adequate sensitivity and reproducibility. A variety of protocols have also been described for detecting and quantifying nitrite and nitrate levels in biological fluids by ion chromatography (e.g., S A Everett et al., J. Chromatogr. 706, 437 (1995); J M Monaghan et al., J. Chromatogr. 770, 143 (1997)), high-performance liquid chromatography (e.g., M Kelm et al., Cardiovasc. Res. 41, 765 (1999)), and capillary electrophoresis (M A Friedberg et al., J. Chromatogr. 781, 491 (1997)). […] Using 2,3-diaminonaphthalene (“DAN”), researchers have developed a rapid, quantitative fluorometric assay that can detect from 10 nM to 10 μM nitrite and is compatible with a multi-well microplate format. […]
A specimen can be processed prior to determination of nitrate or nitrite as required by the quantification method, or in order to improve the results, or for the convenience of the investigator. […]

| SMILES | EC50 |
| --- | --- |
| CN(CCCNCc1ccc2c(c1)OCO2)c1nc(-n2ccnc2)ns1 [Example 2, N′-Benzo[1,3]dioxol-5-ylmethyl-N-(3-imidazol-1-yl-[1,2,4]thiadiazol-5-yl)-N-methyl-propane-1,3-diamine] | > 10 µM |
| Cc1cc(C2CCCN2C(=O)NCCc2ccc3c(c2)OCO3)nc(-n2ccnc2)n1 (stereo not drawn) [Example 4, 2-(2-Imidazol-1-yl-6-methyl-pyrimidin-4-yl)-pyrrolidine-1-carboxylic acid (2-benzo[1,3]dioxol-5-yl-ethyl)-amide] | > 10 µM |
| Cc1cc(C2CCCN2C(=O)CNCc2ccc3c(c2)OCO3)nc(-n2ccnc2)n1 (stereo not drawn) [Example 5] | > 10 µM |
